The subject of one experiment is INS-1E cells. As to the kind of experiment: Cytokine-induced apoptosis (caspase-3/7 activation, Caspase-Glo 3/7) in INS-1E rat insulinoma cells. It counts as cell-based. To be noted: cytokine mix (IFN-γ, IL-1, TNF-α), 24 hours, caspase 3/7 activity, read-out: CYT EC50. An excerpt:
The INS-1E cell line, a rat insulinoma cell line, has been characterized extensively. INS-1E cells respond to glucose by secreting insulin and, unlike most other immortalized n-cell lines, they do this in a consistent manner over time. The cells are sensitive to hyperglycemia-, free fatty acid (FFA)-, and cytokine-induced stress. Prolonged stress ultimately leads to induction of apoptotic pathways and, if stress is not counter-acted, to apoptosis. Caspase-3 and -7 play a central role downstream where various apoptotic pathways merge. As such, activation (i.e. cleavage) of these caspases forms a relevant primary read-out to evaluate protective activity of compounds against stress-induced apoptosis.
To evaluate the efficacy of different compounds to prevent induction of apoptosis, an in vitro screen was developed in which INS-1E cells were exposed to a cytokine mix (IFN-γ, 5 ng/ml; IL-1, 20 pg/ml; TNF-α, 0.25 ng/ml). The degree of induction of apoptosis was evaluated using a substrate for cleaved caspase-3 and -7, i.e. a proluminescent caspase-3/7 DEVD aminoluciferin substrate with a thermostable luciferase (Caspase-Glo® 3/7 assay; Promega, cat. G8092).
On day 0, INS-1E cells were plated in a white-walled 96-well microplate (Greiner, cat. 655098) at 20,000 cells per well in 100 μl complete medium (RPMI containing 11 mM glucose supplemented with 5% FCS, 100 IU/ml penicillin, 100 μg/ml streptomycin, 10 mM HEPES, 1 mM Sodium Pyruvate and 50 μM 2-Mercapto-ethanol). On day 2, 100 μl medium containing cytokines and compound dissolved in DMSO was added to the cells. Wells without cytokines containing DMSO and wells with cytokines and DMSO were included to evaluate the degree of caspase 3/7 activation by the cytokine mix. After 24 hours exposure to cytokines and/or compound, Caspase-Glo® 3/7 reagent was added to the cells and caspase activity was determined by measuring luminescence.
To evaluate compound efficacy, the “toxicity window” was calculated by subtracting caspase activity of wells without stressor from activity of wells with stressor but without compound. The amount of caspase activity in the latter wells was normalized to 1 and used as reference. Subsequently, caspase activity in the wells with stressor and varying concentrations of compound was calculated relative to the wells without compound. Plotting caspase activity vs the log 10 of the concentration of compound permitted calculation of the EC50 values for the compounds which typically lied between 0.0001 and 10 μM. Compounds with an EC50<10 μM were considered active.

In the next experiment the test system is M17_3SYN cells. As to the kind of experiment: Paraquat-induced cytotoxicity (LDH) in α-synuclein over-expressing M17_3SYN neuroblastoma cells. To be noted: Homo sapiens, Neuroblastoma cell, 48 h, 6 mM Paraquat, 2 days, LDH toxicity inhibition, read-out: SYN EC50. It is filed as cell-based. An excerpt:
A α-synuclein expression plasmid was constructed by subcloning the NcoI/XhoI fragment from 212T-SYN(WT) (Griffioen et al., Biochem Biophys Acta (2006) 1762(3):312-318) containing the cDNA of human wild type α-synuclein correspondingly into a standard mammalian expression vector pcDNA3.1 resulting in plasmid pcDNA3.1-SYNwt. Plasmids pcDNA3.1 and pcDNA3.1-SYNwt were transfected into human neuroblastoma cells (BE-M17; ATCC No. CRL-2267™) using lipofectamine reagent and subsequently, independent clonal cell lines with the plasmids stably integrated into the genome were selected by antibiotic resistance selection (Geneticin (G418)), resulting in cell lines M17.pcDNA3 and M17_3SYN. Overexpression of α-synuclein in the M17_3SYN cell line was confirmed by Western blot analysis.
Due to the high levels of α-synuclein, M17_3SYN cells were sensitive to paraquat, a well-known risk factor Parkinson's disease and of synuclein-dependent neuronal degeneration. Cytotoxicity of cells was measured by quantification of lactate dehydrogenase (LDH) levels. In dead cells, LDH leaked out of the cells into the medium due to a loss of plasma-membrane integrity.
Three days preceding the experiment, primary pre-cultures of M17.pcDNA3 (as possible control) and M17_3SYN cells were prepared, starting from a stock culture, at a density of 20.000-40.000 cells/cm2 in culture medium (Opti-MEM® Reduced Serum Medium with Phenol Red (Invitrogen, Cat. 31985-047) supplemented with 10% FCS, 1 mM sodium pyruvate, 1×NEAA, 500 μg/ml G418 and 0.5× antibiotic/antimycotic (ABAM)). 3 days later these primary pre-cultures were used as a starting point to make secondary pre-cultures at a density of 50.000-100.000 cells/cm^2. At the day of the experiment these secondary precultures were diluted to ˜0.5·10^6 cells/ml in detection medium (Opti-MEM® Reduced-Serum Medium without Phenol Red (Invitrogen, Cat. 11085-021) supplemented with 10% FCS, 1 mM sodium pyruvate, 1×NEAA, 500 μg/ml G418 and 0.5×ABAM) and 60 μL of this suspension was dispensed per well into a 96-well microtiter plate. After 3 hours of incubation at 37° C./5% CO2 an equal volume of detection medium containing a final concentration of 6 mM Paraquat was added and subsequently incubated for 2 days at 37° C./5% CO2. Then LDH activity was determined using the Promega Cytotox 96 Non-Radioactive cytotoxicity assay (Promega, Cat. G1780), according to the manufacturer's instructions. Cytotoxicity was defined as the ratio of LDH relative to the total LDH in the cells and supernatant.
The assay described above using the M17_3SYN cell line allowed screening compounds for their ability to decrease cytotoxicity in PQ-challenged cells. Compounds of the invention were tested for their ability to decrease toxicity at different concentrations, ranging from low non-effective concentrations to high effective concentrations. Afterwards, a dose-dependent inhibition curve was used to calculate the EC50. A compound was considered to be active in this test when it inhibited toxicity by more than 20% relative to untreated M17_3SYN cells at a concentration of […] or lower.

A word on the EC50: it is the concentration that produces a half-maximal response.

As for `COc1ccc(S(=O)(=O)N2CCC3(CC2)CN(S(=O)(=O)c2ccc(OC)cc2)C3)cc1` [Cmpd001, 2,7-Bis((4-methoxyphenyl)sulfonyl)-2,7-diazaspiro[3.5]nonane], the values for the EC50 in the experiment on INS-1E cells and with M17_3SYN cells were 201 nM and 1.1 nM, respectively.
For the compound `COc1ccc(S(=O)(=O)N2CCC3(CC2)CN(S(=O)(=O)c2ccc(OC(F)F)cc2)C3)cc1` [Cmpd003, 2-((4-(Difluoromethoxy)phenyl)sulfonyl)-7-((4-methoxyphenyl)sulfonyl)-2,7-diazaspiro[3.5]nonane], the EC50 with INS-1E cells is 40 nM.
On the same count and under the same terms, for `COc1ccc(S(=O)(=O)N2CCC3(CC2)CN(C(=O)Cc2ccc(F)cc2)C3)cc1` [Cmpd006, 2-(4-Fluorophenyl)-1-(7-((4-methoxyphenyl)sulfonyl)-2,7-diazaspiro[3.5]nonan-2-yl)ethanone] the value was 178 nM.
Take `COc1ccc(S(=O)(=O)N2CCC3(CC2)CN(C(=O)Cc2ccccc2)C3)cc1` [Cmpd010, 1-(7-((4-Methoxyphenyl)sulfonyl)-2,7-diazaspiro[3.5]nonan-2-yl)-2-phenylethanone]: in the experiment on INS-1E cells, the EC50 came to 178 nM.
In the case of `COc1ccc(S(=O)(=O)N2CCC3(CC2)CN(C(=O)C2CCOc4ccccc42)C3)cc1` (centres unmarked) [Cmpd021, Chroman-4-yl(7-((4-methoxyphenyl)sulfonyl)-2,7-diazaspiro[3.5]nonan-2-yl)methanone], in the experiment on INS-1E cells, the EC50 was found to be 503 nM.
Still for that read-out and setting: for `COc1ccc(S(=O)(=O)N2CCC3(CC2)CN(c2nc(-c4cnccn4)ns2)C3)cc1` [Cmpd038, 5-(7-((4-Methoxyphenyl)sulfonyl)-2,7-diazaspiro[3.5]nonan-2-yl)-3-(pyrazin-2-yl)-1,2,4-thiadiazole] the value was 317 nM.
For the compound `COc1ccc(S(=O)(=O)N2CCC3(CC2)CN(c2nc(-c4ccc(Cl)cc4)ns2)C3)cc1` [Cmpd039, 3-(4-Chlorophenyl)-5-(7-((4-methoxyphenyl)sulfonyl)-2,7-diazaspiro[3.5]nonan-2-yl)-1,2,4-thiadiazole], the EC50 with INS-1E cells was 100 nM.
Still for that read-out and setting: in the case of `CCOc1ccc(S(=O)(=O)N2CC3(CCN(S(=O)(=O)c4ccc(OC(F)F)cc4)CC3)C2)cc1` [Cmpd042, 7-((4-(Difluoromethoxy)phenyl)sulfonyl)-2-((4-ethoxyphenyl)sulfonyl)-2,7-diazaspiro[3.5]nonane] it was 41 nM; in that of `O=S(=O)(c1ccc(OC(F)F)cc1)N1CCC2(CC1)CN(S(=O)(=O)c1ccc(Cl)cc1)C2` [Cmpd043, 2-((4-Chlorophenyl)sulfonyl)-7-((4-(difluoromethoxy)phenyl)sulfonyl)-2,7-diazaspiro[3.5]nonane], 86 nM.
On to `O=S(=O)(c1ccc(OC(F)F)cc1)N1CCC2(CC1)CN(S(=O)(=O)c1ccc(F)cc1)C2` [Cmpd044, 7-((4-(Difluoromethoxy)phenyl)sulfonyl)-2-((4-fluorophenyl)sulfonyl)-2,7-diazaspiro[3.5]nonane], for which, in the experiment with INS-1E cells, the EC50 amounted to 188 nM.
In the case of `COc1ccc(S(=O)(=O)N2CC3(CCN(S(=O)(=O)c4ccc(Cl)cc4)CC3)C2)cc1` [Cmpd047, 7-((4-Chlorophenyl)sulfonyl)-2-((4-methoxyphenyl)sulfonyl)-2,7-diazaspiro[3.5]nonane], the EC50 with INS-1E cells is 14 nM.
As to `O=S(=O)(c1ccc(OC(F)F)cc1)N1CCC2(CC1)CN(S(=O)(=O)c1ccc(OC(F)F)cc1)C2` [Cmpd048, 2,7-Bis((4-(difluoromethoxy)phenyl)sulfonyl)-2,7-diazaspiro[3.5]nonane], in the experiment with INS-1E cells, the EC50 is 61 nM.
Consider `CCOc1ccc(S(=O)(=O)N2CCC3(CC2)CN(S(=O)(=O)c2ccc(OC(F)F)cc2)C3)cc1` [Cmpd049, 2-((4-(Difluoromethoxy)phenyl)sulfonyl)-7-((4-ethoxyphenyl)sulfonyl)-2,7-diazaspiro[3.5]nonane], for which the EC50 in the experiment with INS-1E cells amounted to 90 nM.
Still for that read-out and setting: for `O=S(=O)(c1ccc(Cl)cc1)N1CCC2(CC1)CN(S(=O)(=O)c1ccc(OC(F)F)cc1)C2` [Cmpd050, 7-((4-Chlorophenyl)sulfonyl)-2-((4-(difluoromethoxy)phenyl)sulfonyl)-2,7-diazaspiro[3.5]nonane] the value was 103 nM.
The same measure, in the same setting: for `O=S(=O)(c1ccc(F)cc1)N1CCC2(CC1)CN(S(=O)(=O)c1ccc(OC(F)F)cc1)C2` [Cmpd051, 2-((4-(Difluoromethoxy)phenyl)sulfonyl)-7-((4-fluorophenyl)sulfonyl)-2,7-diazaspiro[3.5]nonane] the value was 33 nM.
In the case of `COC(=O)c1cccc(S(=O)(=O)N2CCC3(CC2)CN(c2nc(Cc4ccc(F)cc4)ns2)C3)c1` [Cmpd084, Methyl 3-((2-(3-(4-fluorobenzyl)-1,2,4-thiadiazol-5-yl)-2,7-diazaspiro[3.5]nonan-7-yl)sulfonyl)benzoate], in the experiment on M17_3SYN cells, the EC50 is 383 nM.
The same measure, in the same setting: in the case of `O=S(=O)(c1ccc(OC(F)F)cc1)N1CCC2(CC1)CN(c1nc(Cc3ccc(F)cc3)ns1)C2` [Cmpd085, 5-(7-((4-(Difluoromethoxy)phenyl)sulfonyl)-2,7-diazaspiro[3.5]nonan-2-yl)-3-(4-fluorobenzyl)-1,2,4-thiadiazole] it was 541 nM; in that of `COc1ccc(F)cc1S(=O)(=O)N1CCC2(CC1)CN(c1nc(Cc3ccc(F)cc3)ns1)C2` [Cmpd086, 5-(7-((5-Fluoro-2-methoxyphenyl)sulfonyl)-2,7-diazaspiro[3.5]nonan-2-yl)-3-(4-fluorobenzyl)-1,2,4-thiadiazole], 300 nM; in that of `Cn1cc(S(=O)(=O)N2CCC3(CC2)CN(c2nc(Cc4ccc(F)cc4)ns2)C3)cn1` [Cmpd090, 3-(4-Fluorobenzyl)-5-(7-((1-methyl-1H-pyrazol-4-yl)sulfonyl)-2,7-diazaspiro[3.5]nonan-2-yl)-1,2,4-thiadiazole], 285 nM.
On the same count and under the same terms, in the case of `Cc1ccc(S(=O)(=O)N2CCC3(CC2)CN(c2nc(Cc4ccc(F)cc4)ns2)C3)s1` [Cmpd095, 3-(4-Fluorobenzyl)-5-(7-((5-methylthiophen-2-yl)sulfonyl)-2,7-diazaspiro[3.5]nonan-2-yl)-1,2,4-thiadiazole] it was 377 nM.
On the same count and under the same terms, in the case of `O=S(=O)(CC1CCCCC1)N1CCC2(CC1)CN(c1nc(Cc3ccc(F)cc3)ns1)C2` [Cmpd097, 5-(7-((Cyclohexylmethyl)sulfonyl)-2,7-diazaspiro[3.5]nonan-2-yl)-3-(4-fluorobenzyl)-1,2,4-thiadiazole] it was 190 nM.
Take `O=S(=O)(N1CCOCC1)N1CCC2(CC1)CN(c1nc(Cc3ccc(F)cc3)ns1)C2` [Cmpd098, 4-((2-(3-(4-Fluorobenzyl)-1,2,4-thiadiazol-5-yl)-2,7-diazaspiro[3.5]nonan-7-yl)sulfonyl)morpholine]: the EC50 with M17_3SYN cells was determined as 1190 nM.

The values are drawn from patent US9617264B2, “2,7-diazaspiro[3.5]nonane compounds” (REMYND NV, priority 2014, dated 2017).
